From patent publication US20220168427A1 (Ranok Therapeutics (Hangzhou) Co. Ltd., priority 2019, published 2022)

Experiments:
BRD4 (BD1+BD2) = target: T1, BRD4 (BD1+BD2) (Homo sapiens, UniProt O60885); details: read-out: BRD4 Binding Potency
T1 construct: 1.8 μg/ml recombinant BRD4 (BD1+BD2 domains) protein

MV4-11 cells = assay: MV4-11 Cell Cytotoxicity Assay; assay type: cell-based, human; details: human, MV4-11 cells, CCK-8
From the text: % Inhibition=100−(D−B)/(S−B)*100%.
S: The absorbance of the maximum (cells with DMSO)
B: The absorbance of the minimum (medium with DMSO)

HSP90α = HSP90α (Homo sapiens, UniProt P07900); assay: HSP90α Binding Fluorescent Polarization (FP) Assay; details: competition with FITC-geldanamycin; read-out: HSP90 Binding Potency
Outline: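 Competitive FP assay in which compound displaces FITC-geldanamycin from recombinant HSP90α (28 μg/ml before addition) in BSA-containing buffer. Compounds in 3-fold series from 40 μM to 2.0 nM (dilution-plate concentrations), tested in duplicate. Readings after 30, 60 and 120 min at 25 °C; background-subtracted mP fitted to four-parameter log[inhibitor]-response curve.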

Compound	IC50 (BRD4 (BD1+BD2)) [nM]	IC50 at 72 h (MV4-11 cells) [nM]	IC50 (HSP90α) [nM]
Cc1sc2c(c1C)C(c1ccc(Cl)cc1)=N[C@@H](CC(=O)N1CCC(CCN[C@@H](C)C(=O)N[C@H](C(=O)N3CCC[C@H]3C(=O)Nc3snnc3-c3ccccc3)C3CCCCC3)CC1)c1nnc(C)n1-2 [Compound 130, (S)-1-((S)-2-((S)-2-((2-(1-(2-((S)-4-(4-chlorophenyl)-2,3,9-trimethyl-6H-thieno[3,2-f][1,2,4]triazolo[4,3-a][1,4]diazepin-6-yl)acetyl)piperidin-4-yl)ethyl)amino)propanamido)-2-cyclohexylacetyl)-N-(4-phenyl-1,2,3-thiadiazol-5-yl)pyrrolidine-2-carboxamide]	100 to 1000	100 to 1000	> 1000
Cc1sc2c(c1C)C(c1ccc(Cl)cc1)=N[C@@H](CC(=O)NCCOCCOCCOc1ccc(-n3c(S)nnc3-c3cc(C(C)C)c(O)cc3O)cc1)c1nnc(C)n1-2 [Compound 34, (S)-2-(4-(4-chlorophenyl)-2,3,9-trimethyl-6H-thieno[3,2-f][1,2,4]triazolo[4,3-a][1,4]diazepin-6-yl)-N-(2-(2-(2-(4-(3-(2,4-dihydroxy-5-isopropylphenyl)-5-mercapto-4H-1,2,4-triazol-4-yl)phenoxy)ethoxy)ethoxy)ethyl)acetamide]	> 1000	100 to 1000	> 1000
Cc1sc2c(c1C)C(c1ccc(Cl)cc1)=N[C@@H](CC(=O)N1CCC(CN3CCN(c4ccc(-n5c(O)nnc5-c5cc(C(C)C)c(O)cc5O)cc4)CC3)CC1)c1nnc(C)n1-2 [Compound 41, (S)-2-(4-(4-chlorophenyl)-2,3,9-trimethyl-6H-thieno[3,2-f][1,2,4]triazolo[4,3-a][1,4]diazepin-6-yl)-1-(4-((4-(4-(3-(2,4-dihydroxy-5-isopropylphenyl)-5-hydroxy-4H-1,2,4-triazol-4-yl)phenyl)piperazin-1-yl)methyl)piperidin-1-yl)ethanone]	100 to 1000	< 100	100 to 1000
Cc1sc2c(c1C)C(c1ccc(Cl)cc1)=N[C@@H](CCNCC1CCN(C(=O)C3CCN(Cc4ccc(-n5c(O)nnc5-c5cc(C(C)C)c(O)cc5O)cc4)CC3)CC1)c1nnc(C)n1-2 [Compound 64, (4-(((2-((6S)-4-(4-chlorophenyl)-2,3,9-trimethyl-6H-thieno[3,2-f][1,2,4]triazolo[4,3-a][1,4]diazepin-6-yl)ethyl)amino)methyl)piperidin-1-yl)(1-(4-(3-(2,4-dihydroxy-5-isopropylphenyl)-5-hydroxy-4H-1,2,4-triazol-4-yl)benzyl)piperidin-4-yl)methanone, trifluoroacetic acid]	100 to 1000	100 to 1000	100 to 1000
Cc1sc2c(c1C)C(c1ccc(Cl)cc1)=N[C@@H](CCN(C)CCOc1ccc(-n3c(O)nnc3-c3cc(C(C)C)c(O)cc3O)cc1)c1nnc(C)n1-2 [Compound 65, (S)-4-(4-(4-(2-((2-(4-(4-chlorophenyl)-2,3,9-trimethyl-6H-thieno[3,2-f][1,2,4]triazolo[4,3-a][1,4]diazepin-6-yl)ethyl)(methyl)amino)ethoxy)phenyl)-5-hydroxy-4H-1,2,4-triazol-3-yl)-6-isopropylbenzene-1,3-diol]	> 1000	100 to 1000	100 to 1000
Cc1cc(C(=O)N2Cc3ccc(CN4CCN(C(=O)C[C@@H]5N=C(c6ccc(Cl)cc6)c6c(sc(C)c6C)-n6c(C)nnc65)CC4)cc3C2)c(O)cc1O [Compound 144, (S)-2-(4-(4-chlorophenyl)-2,3,9-trimethyl-6H-thieno[3,2-f][1,2,4]triazolo[4,3-a][1,4]diazepin-6-yl)-1-(4-((2-(2,4-dihydroxy-5-methylbenzoyl)isoindolin-5-yl)methyl)piperazin-1-yl)ethan-1-one]	100 to 1000	100 to 1000	100 to 1000
Cc1sc2c(c1C)C(c1ccc(Cl)cc1)=N[C@@H](CC(=O)N[C@H](C)c1cccc(CN3CCC(Cc4ccc(-n5c(C(=O)NCC(F)(F)F)nnc5-c5cc(C(C)C)c(O)cc5O)cc4)CC3)c1)c1nnc(C)n1-2 [Compound 97, 4-(4-((1-(3-((R)-1-(2-((S)-4-(4-chlorophenyl)-2,3,9-trimethyl-6H-thieno[3,2-f][1,2,4]triazolo[4,3-a][1,4]diazepin-6-yl)acetamido)ethyl)benzyl)piperidin-4-yl)methyl)phenyl)-5-(2,4-dihydroxy-5-isopropylphenyl)-N-(2,2,2-trifluoroethyl)-4H-1,2,4-triazole-3-carboxamide, trifluoroacetic acid]	< 100	< 100	100 to 1000
Cc1sc2c(c1C)C(c1ccc(Cl)cc1)=N[C@@H](CC(=O)N1CCN(C(=O)C3CCN(c4ccc(-n5c(O)nnc5-c5cc(C(C)C)c(O)cc5O)cc4)CC3)CC1)c1nnc(C)n1-2 [Compound 29, (S)-2-(4-(4-chlorophenyl)-2,3,9-trimethyl-6H-thieno[3,2-f][1,2,4]triazolo[4,3-a][1,4]diazepin-6-yl)-1-(4-(1-(4-(3-(2,4-dihydroxy-5-isopropylphenyl)-5-hydroxy-4H-1,2,4-triazol-4-yl)phenyl)piperidine-4-carbonyl)piperazin-1-yl)ethan-1-one]	> 1000	100 to 1000	> 1000
Cc1sc2c(c1C)C(c1ccc(Cl)cc1)=N[C@@H](CC(=O)N1CCC(Cc3ccc(-n4c(O)nnc4-c4cc(C(C)C)c(O)cc4O)cc3)CC1)c1nnc(C)n1-2 [Compound 3, 2-((6S)-4-(4-chlorophenyl)-2,3,9-trimethyl-6H-thieno[3,2-f][1,2,4]triazolo[4,3-a][1,4]diazepin-6-yl)-1-(4-(4-(3-(2,4-dihydroxy-5-isopropylphenyl)-5-hydroxy-4H-1,2,4-triazol-4-yl)benzyl)piperidin-1-yl)ethanone, trifluoroacetic acid]	> 1000	< 100	100 to 1000
COc1cccc(-c2cc(C(=O)Nc3ccc(-c4ccc(OC5CCN(C(=O)CNC(=O)C[C@@H]6N=C(c7ccc(Cl)cc7)c7c(sc(C)c7C)-n7c(C)nnc76)CC5)cc4OCCN(C)C)cc3)ccc2OC)c1 [Compound 138]	< 100	< 100	> 1000
Cc1nn(-c2ccc(C(N)=O)c(NCCOCCN3CCN(C(=O)C[C@@H]4N=C(c5ccc(Cl)cc5)c5c(sc(C)c5C)-n5c(C)nnc54)CC3)c2)c2c1C(=O)CC(C)(C)C2 [Compound 24, 2-((2-(2-(4-(2-((6S)-4-(4-chlorophenyl)-2,3,9-trimethyl-6H-thieno[3,2-f][1,2,4]triazolo[4,3-a][1,4]diazepin-6-yl)acetyl)piperazin-1-yl)ethoxy)ethyl)amino)-4-(3,6,6-trimethyl-4-oxo-4,5,6,7-tetrahydro-1H-indazol-1-yl)benzamide]	> 1000	100 to 1000	> 1000
CC[C@@H](C)Nc1cc(C(=O)NC2C[C@H]3CC[C@H](C2)N3c2ccc(C(=O)Nc3ccc(CN4CCN(CC5CCN(C(=O)C[C@@H]6N=C(c7ccc(Cl)cc7)c7c(sc(C)c7C)-n7c(C)nnc76)CC5)CC4)cc3)cn2)c(C)cc1C(N)=O (stereo partly drawn) [Compound 26, 5-((R)-sec-butylamino)-N1-((1R,5R)-8-(5-((4-((4-((1-(2-((6S)-4-(4-chlorophenyl)-2,3,9-trimethyl-6H-thieno[3,2-f][1,2,4]triazolo[4,3-a][1,4]diazepin-6-yl)acetyl)piperidin-4-yl)methyl)piperazin-1-yl)methyl)phenyl)carbamoyl)pyridin-2-yl)-8-azabicyclo[3.2.1]octan-3-yl)-2-methylterephthalamide, formic acid]	100 to 1000	< 100	> 1000
Cc1sc2c(c1C)C(c1ccc(Cl)cc1)=NC(CC(=O)N1CCC(Cc3ccc(CN(C)Cc4ccc(-n5c(C(=O)NCC(F)(F)F)nnc5-c5cc(C(C)C)c(O)cc5O)cc4)cc3)CC1)c1nnc(C)n1-2 (stereo in doubt) [Compound 84, (S)-4-(4-(((4-((1-(2-(4-(4-chlorophenyl)-2,3,9-trimethyl-6H-thieno[3,2-f][1,2,4]triazolo[4,3-a][1,4]diazepin-6-yl)acetyl)piperidin-4-yl)methyl)benzyl)(methyl)amino)methyl)phenyl)-5-(2,4-dihydroxy-5-isopropylphenyl)-N-(2,2,2-trifluoroethyl)-4H-1,2,4-triazole-3-carboxamide, trifluoroacetic acid]	> 1000	< 100	100 to 1000
CCc1cc(-c2nnc(O)n2-c2ccc(CN3CCN(CC4CCN(C(=O)C[C@H]5N=C(c6ccc(Cl)cc6)c6c(sc(C)c6C)-n6c(C)nnc65)CC4)CC3)cc2)c(O)cc1O [Compound 27, 2-((6R)-4-(4-chlorophenyl)-2,3,9-trimethyl-6H-thieno[3,2-f][1,2,4]triazolo[4,3-a][1,4]diazepin-6-yl)-1-(4-((4-(4-(3-(5-ethyl-2,4-dihydroxyphenyl)-5-hydroxy-4H-1,2,4-triazol-4-yl)benzyl)piperazin-1-yl)methyl)piperidin-1-yl)ethanone, trifluoroacetic acid]	> 1000	< 100	100 to 1000
Cc1sc2c(c1C)C(c1ccc(Cl)cc1)=N[C@@H](CCN(C)CCOCCOc1ccc(-n3c(O)nnc3-c3cc(C(C)C)c(O)cc3O)cc1)c1nnc(C)n1-2 [Compound 71, (S)-4-(4-(4-(2-(2-((2-(4-(4-chlorophenyl)-2,3,9-trimethyl-6H-thieno[3,2-f][1,2,4]triazolo[4,3-a][1,4]diazepin-6-yl)ethyl)(methyl)amino)ethoxy)ethoxy)phenyl)-5-hydroxy-4H-1,2,4-triazol-3-yl)-6-isopropylbenzene-1,3-diol, trifluoroacetic acid]	> 1000	100 to 1000	100 to 1000
